Source: patent publication US20010056085A1, “Methods of using vesicant drug formulations” (priority 1996, published 2001)

Legend:
[1] = Half-life of ADR destruction by UVA light in the presence of test compounds (decrease in absorbance at 480 nm); assay type: physicochemical; settings: UVA light; 100 μM test compound with 0.5 μM riboflavin
[2] = Effect of UVA irradiation on the absorbance spectrum of DOX (350-600 nm; KDOX at 480 nm); assay type: physicochemical; settings: for photoenhancing effect on riboflavin-mediated UVA destruction of DOX (absorbance at 480 nm): 100 μM compound, 0.5 μM riboflavin in PBS without Ca2+ and Mg2+, 0 to 20 minutes UVA
[3] = system: P388 cells and P388/ADR cells; test: Catalase protection of cells from UVA irradiation; assay type: cell-based, murine; settings: 0.01 to 100 U/ml catalase in PBS or RPMI 1640
[4] = system: P388 or P388/ADR cell lines; test: Effect of catalase on the growth inhibitory effect of DOX; assay type: cell-based, murine; settings: 30 U/ml catalase
P388 cells = test: In vitro cell culture assay: growth inhibitory effect of UVA-irradiated DOX solutions; assay type: cell-based, murine
Method: Cell culture was carried out as previously described (Ramu et al. [1984] Cancer Res., 44:144). Briefly, P388 murine leukemia cells (i.e., P388D1 available from the ATCC; […] An inoculum of cells was transferred to fresh medium once every 4 days to maintain exponential growth. […] Drug solutions (0.2 ml/well) in 24 well culture clusters without the lid were irradiated in a laminar flow hood with 3 Blacklight Blue 40 W lamps (Vilber Lourmat, Marne la Vallee, France).

N[C@@H](Cc1ccccc1)C(=O)O [Phenylalanine]
Half-Life of ADR Destruction, 100 μM Test Compound and 0.5 μM Riboflavin [1]: 75.3 min | photoenhancing effect on riboflavin-mediated UVA destruction of DOX (absorbance at 480 nm) ([2]; 20 μM DOX): did not enhance

catalase
effect on the rate of destruction of DOX by UVA irradiation ([2]; 150 units/ml catalase, 20 μM DOX in RPMI medium 1640): did not affect the rate of destruction of DOX | protection of cells from damage (inhibition of growth) by protracted UVA irradiation [3]: protected the cells from damage | interference with the growth inhibitory effect of DOX [4]: does not interfere with the growth inhibitory effect of DOX

Cc1cc2nc3c(=O)[nH]c(=O)nc-3n(C[C@H](O)[C@H](O)[C@H](O)COP(=O)(O)O)c2cc1C [FMN, flavin mononucleotide]
effectiveness relative to FAD in mediating UVA obliteration of the DOX growth inhibitory effect (P388 cells; 0.3 μM DOX in PBS, 8 min UVA): 5 fold

N[C@@H](Cc1c[nH]cn1)C(=O)O [Histidine]
Half-Life of ADR Destruction, 100 μM Test Compound and 0.5 μM Riboflavin [1]: 55.2 ± 7.1 min | photoenhancing effect on riboflavin-mediated UVA destruction of DOX (absorbance at 480 nm) ([2]; 20 μM DOX): enhanced

CSCC[C@H](N)C(=O)O [Methionine]
photoenhancing effect on riboflavin-mediated UVA destruction of DOX (absorbance at 480 nm) ([2]; 20 μM DOX): enhanced

O=C(O)CN(CCN(CC(=O)O)CC(=O)O)CC(=O)O [EDTA, ethylenediaminetetraacetic acid]
photoenhancing effect on riboflavin-mediated UVA destruction of DOX (absorbance at 480 nm) ([2]; 20 μM DOX): enhanced

O=C1O[C@H]([C@@H](O)CO)C(O)=C1O [ascorbate, ascorbic acid]
effect on the UVA-induced decrease of DOX absorbance ([2]; 0.16 mM ascorbate, 20 μM DOX in RPMI medium 1640): this decrease was smaller | effect on the UVA-induced decrease of DOX absorbance ([2]; 1.6 mM ascorbate, 20 μM DOX in RPMI medium 1640, 20 minutes of irradiation): no changes in the absorbance spectrum of DOX

O=S(=O)(O)CCN1CCN(CCO)CC1 [HEPES, N-2-hydroxyethylpiperazine-N′-2-ethanesulfonic acid]
effect on riboflavin-mediated photoinactivation of DOX ([2]; 5 mM HEPES, 20 μM DOX, riboflavin in PBS): accelerate the riboflavin-mediated photoinactivation of DOX

COc1cccc2c1C(=O)c1c(O)c3c(c(O)c1C2=O)C[C@@](O)(C(=O)CO)C[C@@H]3O[C@H]1C[C@H](N)[C@H](O)[C@H](C)O1.Cl [DOX, Doxorubicin HCl, reference compound]
first order rate constant of the decrease in DOX absorbance (KDOX) ([2]; 20 μM DOX in RPMI medium 1640 without phenol red, 50 mM HEPES pH 7.2, UVA): 0.025 min⁻¹ | UVA irradiation required to destroy the DOX absorbance spectrum ([2]; 20 μM DOX, 2 μM riboflavin and 5 nM DABCO (FIG. 12)): 20 min | UVA irradiation required to eliminate the DOX absorbance spectrum ([2]; 20 μM DOX, 20 μM riboflavin, 5 mM DABCO in PBS (FIG. 13B)): less than 2 minutes | time in which the DOX absorbance spectrum disappeared ([2]; 20 μM DOX, 20 μM riboflavin, 5 mM DABCO, PBS without Ca2+ and Mg2+ (FIG. 13C)): less than 1 minute

Cc1cc2nc3c(=O)[nH]c(=O)nc-3n(C[C@H](O)[C@H](O)[C@H](O)COP(=O)(O)OP(=O)(O)OC[C@H]3O[C@@H](n4cnc5c(N)ncnc54)[C@H](O)[C@@H]3O)c2cc1C [FAD, flavin adenine dinucleotide]
effectiveness in mediating the UVA inactivation of DOX compared with riboflavin ([2]; in the presence or absence of DABCO): not as effective as riboflavin | raise of concentration needed to obtain an effect comparable to riboflavin or FMN (P388 cells; UVA effect on DOX): 5 fold
